Measured values as given in patent US20150359812A1, “PROPHYLACTIC/THERAPEUTIC AGENT FOR DRY EYE” (priority 2012, published 2015).

Tests used:
[1] = tested on: radical oxygen species in lacrimal gland tissue; experiment: Inhibitory action to radical oxygen species using isolated lacrimal glands of mice (DCFH-DA fluorescence); format: cell-based; conditions: for inhibition of radical oxygen by isolated delphinidin glycosides, FIG. 6: lacrimal gland cell suspension, DCFH-DA; for inhibition of radical oxygen in lacrimal cells, FIG. 12: comparison of delphinidin glycosides
Description: The action of the maqui berry extract to radical oxygen species in lacrimal gland tissue was evaluated using mice […].
The evaluation of the inhibitory action to radical oxygen species was done in the following way.
An isolated lacrimal gland was placed in a test tube, and 25 mg tissue/mL of cold phosphate-buffered saline (PBS) was added. After that, zirconia beads were added to the lacrimal gland that is to be crushed by a bead grinder. Then, 50 μL each of cell suspension was dispensed. Then, the maqui berry extract of Working Example 1 (1, 10 μg/mL) was added to the cell suspension, and then DCFH-DA solution as the radical oxygen series was added to make the final level of concentration at 75 μm. Then, after 60 minutes of incubation at 37 degrees Celsius, the cells were washed in PBS. The fluorescence-plate reader measured the intensity of fluorescence at (X485/528).
As a Comparative Example, the same test was done on lutein 10 μg/mL (compare and contrast).
Also, as a Comparative Example, the same test was done on the bilberry extract (Indena) and on the black currant extract (Tama Biochemical Co., Ltd.).
Furthermore, the same tests were done on the following examples.
Regarding Fr. 2: delphinidin-3,5-diglucoside (Working Example 3), Fr. 6: delphinidin-3-glucoside (Working Example 5) and delphinidin-3-rutinoside (Comparative Example 1: substance contained in cassis), the same evaluation as in Test Example 2 was done.
Regarding Fr. 6 delphinidin-3-glucoside (Working Example 5) and the other anthocyanin series (petunidin-3-glucoside, peonidin-3-glucoside, malvidin-3-glucoside and cyaniding-3-glucoside), the evaluation of Test Example 2 was done.

lacrimal cells = experiment: Absorption test of anthocyanins into lacrimal cells (HPLC); format: in vitro ADME; conditions: 100 μM, 30 minutes at 37 degrees Celsius, compared with D3G and D3R
Description: The test was done in the following way. Each anthocyanin (of delphinidin-3,5-diglucoside, delphinidin-3-O-glucoside and delphinidin-3-Orutinoside) was added to the lachrymal-cells suspension at the final concentration of 100 μM.
After that, the suspension was incubated for 30 minutes at 37 degrees Celsius. Then, the cells were washed and suspended again in the buffer. Thus, the amount of anthocyanin was analyzed by HPLC. The analysis is as follows.
The condition of HPLC is as follows:
Column: YMC UltraHT Pro C18 dia.2.0×100 mm
Column temperature: 30 degrees Celsius
Eluent: A=0.3% TFA aqueous solution, B=acetonitrile
Flow rate: 0.3 mL/min, Injection volume: 50 μL
Quantitative limit: 2 ng/mL (cyaniding-3-O-glucoside)

| Compound | inhibition of radical oxygen by isolated delphinidin glycosides, FIG. 6 [1] | amount of absorption of anthocyanin into the lacrimal cells, FIG. 14 (lacrimal cells) | inhibition of radical oxygen in lacrimal cells, FIG. 12 [1] | action in inhibiting radical oxygen in lacrimal cells compared to other anthocyanins, FIG. 13 ([1]; comparison with petunidin-, peonidin-, malvidin- and cyanidin-3-glucoside) |
| --- | --- | --- | --- | --- |
| OC[C@H]1O[C@@H](Oc2cc(O)cc3[o+]c(-c4cc(O)c(O)c(O)c4)c(O[C@@H]4O[C@H](CO)[C@@H](O)[C@H](O)[C@H]4O[C@@H]4OC[C@@H](O)[C@H](O)[C@H]4O)cc23)[C@H](O)[C@@H](O)[C@@H]1O [Fr. 1, Delphinidin-3sambubioside-5-glucoside] | significantly inhibited |  |  |  |
| OC[C@H]1O[C@@H](Oc2cc3c(O[C@@H]4O[C@H](CO)[C@@H](O)[C@H](O)[C@H]4O)cc(O)cc3[o+]c2-c2cc(O)c(O)c(O)c2)[C@H](O)[C@@H](O)[C@@H]1O [Fr. 2, Delphinidin-3,5-diglucoside] | significantly inhibited | absorbed by the lacrimal cells more | excellent inhibitory action | especially excellent action |
| OC[C@H]1O[C@@H](Oc2cc3c(O)cc(O)cc3[o+]c2-c2cc(O)c(O)c(O)c2)[C@H](O)[C@@H](O)[C@@H]1O [Fr. 6, Delphinidin-3-glucoside] | significantly inhibited |  | inhibited |  |
| CC1O[C@@H](OC[C@H]2OC(Oc3cc4c(O)cc(O)cc4[o+]c3-c3cc(O)c(O)c(O)c3)[C@H](O)C(O)C2O)C(O)C(O)[C@H]1O (stereo partly drawn) [delphinidin-3-rutinoside, reference compound] |  |  | did not inhibit |  |
| OC[C@H]1O[C@@H](Oc2cc3c(O)cc(O)cc3[o+]c2-c2cc(O)c(O)c(O)c2)[C@H](O[C@@H]2OC[C@@H](O)[C@H](O)[C@H]2O)[C@@H](O)[C@@H]1O [Fr. 5, Delphinidin-3-sambubioside] | significantly inhibited |  |  |  |
